Experimental data: patent US20260297042A1, “BIARYLAMIDE DERIVATIVES AND THEIR USE AS PKMYT1 INHIBITORS” (CANCER RESEARCH TECHNOLOGY LIMITED, priority 2023, published 2026)

What was measured:
Human PKMYT1 = target: T1, Human PKMYT1 (Homo sapiens, UniProt Q99640); assay: PKMYT1 biochemical ADP-Glo enzymatic assay; details: PKMYT1 kinase domain 15 nM; ADP-Glo; banded values
T1 construct: Human PKMYT1 75-362 was cloned as a TEV cleavable 6xHis fusion; 6xHis (TEV cleavable) (cleaved yes); made in house; host or cells: bacterial cells
T1 sequence (Q99640 75-362): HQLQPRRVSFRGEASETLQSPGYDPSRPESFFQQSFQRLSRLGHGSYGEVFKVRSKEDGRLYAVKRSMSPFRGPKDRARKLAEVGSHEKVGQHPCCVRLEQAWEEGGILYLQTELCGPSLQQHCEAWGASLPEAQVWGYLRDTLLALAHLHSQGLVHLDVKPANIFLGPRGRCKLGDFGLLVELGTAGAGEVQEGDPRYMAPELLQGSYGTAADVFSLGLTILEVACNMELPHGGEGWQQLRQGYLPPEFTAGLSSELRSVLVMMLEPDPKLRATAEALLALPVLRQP
How it was run: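 Compounds were titrated over 10 points (3-fold steps), then 15 nM purified PKMYT1 kinase domain (aa 75-362) and 500 µM ATP were added in pH 7.5 HEPES buffer. After 60 min at 26 °C, remaining ATP was depleted and ADP converted to luminescence for IC50 fitting.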

WEE1 = target: T2, WEE1 (Homo sapiens, UniProt P30291); assay: Selectivity versus WEE1 assay (ADP-Glo enzymatic assay); type: biochemical; details: for IC50: WEE1 15 nM, ADP-Glo, banded values; for PKMYT1 vs. WEE1 selectivity: fold difference in selectivity for PKMYT1 over WEE1, banded
T2 construct: purchased Thermo Fisher PR7373A
T2 sequence (P30291 whole entry): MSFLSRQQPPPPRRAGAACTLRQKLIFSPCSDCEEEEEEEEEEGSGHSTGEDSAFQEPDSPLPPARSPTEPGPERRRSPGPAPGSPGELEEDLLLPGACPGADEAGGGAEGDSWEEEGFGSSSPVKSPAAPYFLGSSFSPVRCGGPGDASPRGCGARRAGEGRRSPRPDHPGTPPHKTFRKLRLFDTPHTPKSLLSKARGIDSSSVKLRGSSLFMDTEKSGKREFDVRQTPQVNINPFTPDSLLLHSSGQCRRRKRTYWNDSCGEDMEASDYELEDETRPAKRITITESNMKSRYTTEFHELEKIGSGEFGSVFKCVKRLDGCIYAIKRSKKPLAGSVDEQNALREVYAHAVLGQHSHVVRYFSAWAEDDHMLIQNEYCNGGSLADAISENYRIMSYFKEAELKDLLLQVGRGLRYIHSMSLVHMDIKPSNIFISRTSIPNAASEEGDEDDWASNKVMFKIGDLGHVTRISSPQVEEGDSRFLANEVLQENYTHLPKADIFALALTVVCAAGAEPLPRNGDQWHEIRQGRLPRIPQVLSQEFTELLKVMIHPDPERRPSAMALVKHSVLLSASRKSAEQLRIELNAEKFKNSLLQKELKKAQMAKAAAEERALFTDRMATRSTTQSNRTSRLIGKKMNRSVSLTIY
How it was run: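 Compounds were pre-dispensed, enzyme (15 nM final) was added in pH 7.5 HEPES buffer, and ATP ([…]) then started a 60 min incubation at 26° C. Afterwards ADP-Glo reagents were added in turn and luminescence was measured to derive IC50 values.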

OVCAR 3 cells = assay: Cancer cell line proliferation assay, ATP-based cell viability (Cell Titre Glow), OVCAR 3 (CCNE1-amplified); details: KYSE30 (normal CCNE1) GI50 vs. OVCAR 3 (CCNE1-amplified) GI50
How it was run: (§1)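 Proliferation of KYSE-30 (normal CCNE1) and CCNE1-amplified OVCAR 3 ovarian cancer cells treated with PKMYT1 inhibitors, read by Cell Titre Glow luminescence. GI50 is the concentration giving 50% growth inhibition.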

KYSE-30 cells = assay: Cancer cell line proliferation assay, ATP-based cell viability (Cell Titre Glow), KYSE-30 (normal CCNE1); details: Homo sapiens, KYSE-30 cells (normal CCNE1), concentration that achieves 50% cell growth proliferation inhibition, read-out: KYSE30 Gl50
How it was run: as §1

[1] = target: T3, Cellular PKMYT1 Biomarker CDK1 pT14 (Homo sapiens, UniProt Q99640); assay: Inhibition of cellular PKMYT1 biomarker CDK1 pT14 in OVCAR 3 cells (immunoblot); type: cell-based; details: 20 hours incubation
T3 construct: read-out CDK1 phospho-T14 immunoblot
T3 sequence (Q99640 1-499): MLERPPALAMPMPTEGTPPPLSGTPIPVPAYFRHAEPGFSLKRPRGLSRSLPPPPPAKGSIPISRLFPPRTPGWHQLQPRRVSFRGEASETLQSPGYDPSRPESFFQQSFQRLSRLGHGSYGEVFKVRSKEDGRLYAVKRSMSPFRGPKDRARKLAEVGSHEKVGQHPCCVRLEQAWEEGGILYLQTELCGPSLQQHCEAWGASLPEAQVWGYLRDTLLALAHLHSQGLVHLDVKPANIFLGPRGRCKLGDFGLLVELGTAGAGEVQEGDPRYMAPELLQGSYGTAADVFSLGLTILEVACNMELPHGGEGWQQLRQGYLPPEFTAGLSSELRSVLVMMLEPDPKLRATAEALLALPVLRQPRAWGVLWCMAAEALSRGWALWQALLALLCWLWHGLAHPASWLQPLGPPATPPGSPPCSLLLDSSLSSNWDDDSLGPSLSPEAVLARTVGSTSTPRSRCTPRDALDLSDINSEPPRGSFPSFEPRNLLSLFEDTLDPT
How it was run: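 Confluent OVCAR 3 cells treated with a compound concentration range for 20 h at 37 °C. Lysates analysed by automated capillary immunoblot for CDK1 phospho-T14, with vinculin, fluorescence detection; IC50 by regression.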

Row | Compound | IC50 (Human PKMYT1) | IC50 (WEE1) | PKMYT1 vs. WEE1 selectivity (WEE1) | IC50 [1] | Selectivity ratio KYSE30 Gl50 vs. OVCAR3 Gl50 (OVCAR 3 cells) | GI50 (KYSE-30 cells)
1 | Cc1ccc(O)c(C)c1NC(=O)c1cnc(Nc2ccccn2)s1 [BAA-421, N-(3-hydroxy-2,6-dimethylphenyl)-2-(pyridin-2-ylamino)thiazole-5-carboxamide] | < 50 nM | > 11000 nM | X (100-<1000 fold) | < 100 nM | Y (>20 fold) | 500 to 5000 nM
2 | Cc1ccnc(Nc2ncc(C(=O)Nc3c(C)ccc(O)c3C)s2)c1 [BAA-422, N-(3-hydroxy-2,6-dimethylphenyl)-2-((4-methylpyridin-2-yl)amino)thiazole-5-carboxamide] | < 50 nM | 1000 to 11000 nM | X (100-<1000 fold) | < 100 nM | Y (>20 fold) | 500 to 5000 nM
3 | Cc1ccc(O)c(C)c1NC(=O)c1cnc(Nc2cccc(N3CCN(C)CC3)n2)s1 [BAA-423, N-(3-hydroxy-2,6-dimethylphenyl)-2-((6-(4-methylpiperazin-1-yl)pyridin-2-yl)amino)thiazole-5-carboxamide] | < 50 nM | 1000 to 11000 nM | W (10-<100 fold) | < 100 nM | Y (>20 fold) | 500 to 5000 nM
4 | Cc1ccnc(Nc2ncc(C(=O)Nc3c(C)ccc(O)c3C)s2)c1F [BAA-424, 2-((3-fluoro-4-methylpyridin-2-yl)amino)-N-(3-hydroxy-2,6-dimethylphenyl)thiazole-5-carboxamide] | < 50 nM | > 11000 nM | Y (1000-5000 fold) | < 100 nM | Y (>20 fold) | > 5000 nM
5 | COc1ccc(F)c(Nc2ncc(C(=O)Nc3c(C)ccc(O)c3C)s2)n1 [BAA-425, 2-((3-fluoro-6-methoxypyridin-2-yl)amino)-N-(3-hydroxy-2,6-dimethylphenyl)thiazole-5-carboxamide] | < 50 nM | > 11000 nM | Y (1000-5000 fold) | < 100 nM | Y (>20 fold) | 500 to 5000 nM
6 | CCN(C(=O)Cc1cccc(Nc2ncc(C(=O)Nc3c(C)ccc(O)c3C)s2)n1)C1CC1 [BAA-426, 2-((6-(2-(Cyclopropyl(ethyl)amino)-2-oxoethyl)pyridin-2-yl)amino)-N-(3-hydroxy-2,6-dimethylphenyl)thiazole-5-carboxamide] | < 50 nM | > 11000 nM | Z (>5000 fold) | < 100 nM | Y (>20 fold) | 500 to 5000 nM
7 | Cc1ccc(O)c(C)c1NC(=O)c1cnc(Nc2cccc(CC(=O)N(C3CC3)C3CC3)n2)s1 [BAA-427, 2-((6-(2-(Dicyclopropylamino)-2-oxoethyl)pyridin-2-yl)amino)-N-(3-hydroxy-2,6-dimethylphenyl)thiazole-5-carboxamide] | < 50 nM | > 11000 nM | Z (>5000 fold) | < 100 nM | Y (>20 fold) | > 5000 nM
8 | CCOc1ccc(Nc2ncc(C(=O)Nc3c(C)ccc(O)c3C)s2)nc1C [BAA-430, 2-((5-ethoxy-6-methylpyridin-2-yl)amino)-N-(3-hydroxy-2,6-dimethylphenyl)thiazole-5-carboxamide] | < 50 nM | > 11000 nM | Y (1000-5000 fold) | < 100 nM | Y (>20 fold) | > 5000 nM

Continued, in another order:

Row | IC50 (Human PKMYT1) | IC50 (WEE1) | PKMYT1 vs. WEE1 selectivity (WEE1) | IC50 [1] | Compound | Selectivity ratio KYSE30 Gl50 vs. OVCAR3 Gl50 (OVCAR 3 cells) | GI50 (KYSE-30 cells)
9 | < 50 nM | 1000 to 11000 nM | X (100-<1000 fold) | < 100 nM | Cc1ccc(O)c(C)c1NC(=O)c1cnc(Nc2cccc(N3CCN(CCO)CC3)n2)s1 [BAA-432, N-(3-hydroxy-2,6-dimethylphenyl)-2-((6-(4-(2-hydroxyethyl)piperazin-1-yl)pyridin-2-yl)amino)thiazole-5-carboxamide] | Y (>20 fold) | > 5000 nM
10 | < 50 nM | 1000 to 11000 nM | W (10-<100 fold) | < 100 nM | Cc1ccc(O)c(C)c1NC(=O)c1cnc(Nc2ncnc3[nH]ccc23)s1 [BAA-441, 2-((7H-pyrrolo[2,3-d]pyrimidin-4-yl)amino)-N-(3-hydroxy-2,6-dimethylphenyl)thiazole-5-carboxamide] | Y (>20 fold) | > 5000 nM
11 | < 50 nM | 1000 to 11000 nM | X (100-<1000 fold) | < 100 nM | Cc1ccc2c(Nc3ncc(C(=O)Nc4c(C)ccc(O)c4C)s3)nn(C)c2c1 [BAA-451, 2-((1,6-dimethyl-1H-indazol-3-yl)amino)-N-(3-hydroxy-2,6-dimethylphenyl)thiazole-5-carboxamide] | Y (>20 fold) | > 5000 nM
12 | 50 to 1000 nM | > 11000 nM | X (100-<1000 fold) | < 100 nM | Cc1ccc(O)c(C)c1NC(=O)c1cnc(Nc2nn(C)c3ccc(F)cc23)s1 [BAA-453, 2-((5-fluoro-1-methyl-1H-indazol-3-yl)amino)-N-(3-hydroxy-2,6-dimethylphenyl)thiazole-5-carboxamide] | Y (>20 fold) | > 5000 nM
13 | 50 to 1000 nM | > 11000 nM | Y (1000-5000 fold) | < 100 nM | CCn1nc(Nc2ncc(C(=O)Nc3c(C)ccc(O)c3C)s2)c2cc(C(F)(F)F)ccc21 [BAA-456, 2-((1-ethyl-5-(trifluoromethyl)-1H-indazol-3-yl)amino)-N-(3-hydroxy-2,6-dimethylphenyl)thiazole-5-carboxamide] | X (3-20 fold) | 500 to 5000 nM
14 | < 50 nM | 1000 to 11000 nM | X (100-<1000 fold) | < 100 nM | CCn1nc(Nc2ncc(C(=O)Nc3c(C)ccc(O)c3C)s2)c2ccccc21 [BAA-458, 2-((1-ethyl-1H-indazol-3-yl)amino)-N-(3-hydroxy-2,6-dimethylphenyl)thiazole-5-carboxamide] | Y (>20 fold) | 500 to 5000 nM
15 | 50 to 1000 nM | > 11000 nM | X (100-<1000 fold) | < 100 nM | CCn1nc(Nc2ncc(C(=O)Nc3c(C)ccc(O)c3C)s2)c2cc(F)ccc21 [BAA-459, 2-((1-ethyl-5-fluoro-1H-indazol-3-yl)amino)-N-(3-hydroxy-2,6-dimethylphenyl)thiazole-5-carboxamide] | Y (>20 fold) | > 5000 nM
16 | < 50 nM | 1000 to 11000 nM | X (100-<1000 fold) | < 100 nM | Cc1cn(CCF)nc1Nc1ncc(C(=O)Nc2c(C)ccc(O)c2C)s1 [BAA-470, 2-((1-(2-fluoroethyl)-4-methyl-1H-pyrazol-3-yl)amino)-N-(3-hydroxy-2,6-dimethylphenyl)thiazole-5-carboxamide] | Y (>20 fold) | > 5000 nM
17 | < 50 nM | 1000 to 11000 nM | X (100-<1000 fold) | < 100 nM | Cc1cn(CC(F)F)nc1Nc1ncc(C(=O)Nc2c(C)ccc(O)c2C)s1 [BAA-478, 2-((1-(2,2-difluoroethyl)-4-methyl-1H-pyrazol-3-yl)amino)-N-(3-hydroxy-2,6-dimethylphenyl)thiazole-5-carboxamide] | Y (>20 fold) | > 5000 nM
